In US10457976B2, “Preparing antibodies from CHO cell cultures for conjugation” (SEATTLE GENETICS, INC., priority 2013, dated 2019):

System: QSOX1 sulfhydryl oxidase (oxidizing activity in lot DEVNKB-1)
Assay: Sulfhydryl oxidizing activity of lot DEVNKB-1 with additives (ferrous oxidation xylenol orange, FOX, assay)
Format: biochemical, Chinese hamster
Method: Further to characterize the oxidizing activity in lot DEVNKB-1, the lot was tested for sulfhydryl oxidizing activity using the ferrous oxidation xylenol orange (FOX) assay. Sulfhydryl oxidases catalyze the following reaction: 2R—SH+O2→R—S—S—R+H2O2 As the reaction proceeds, oxygen is consumed and hydrogen peroxide is produced. The hydrogen peroxide by-product can be detected readily and reliably, and thus serves as a proxy for sulfhydryl oxidase activity. In the FOX assay, hydrogen peroxide oxidizes ferrous iron (Fe^2+) to produce ferric iron (Fe^3+). The […] complexes with xylenol orange to form a compound that absorbs 560 nm light. Thus, by monitoring absorption of 560 nm light (e.g., using a spectrophotometer), the amount of sulfhydryl oxidizing activity in a sample can be determined. The value of a negative control is compared to the value of the test sample by determining the difference in the 560 nm reading. If the resulting value is greater than 0.1 absorbance units, then the samples is positive for oxidizing impurity. […] Addition of both DEVNKB-1 and 1 mM Zn^2+, however, was only 0.008. […] This is consistent with the oxidizing agent having a flavin-dependent sulfhydryl oxidase domain, such as QSOX1.
Further assays were performed to see whether EDTA could reverse the Zn^2+-dependent elimination of oxidizing activity in lot DEVNKB-1. In these experiments, Zn^2+ was added to the assay buffer, either with or without EDTA. In addition, assay buffer having EDTA was evaluated. […] Addition of both Zn^2+ and additional EDTA, however, reduced the oxidizing activity by only 6%. Thus, the EDTA effectively reversed the Zn^2+-dependent inhibition of oxidizing activity. Again, this is what is expected for an oxidizing agent that has a flavin-dependent sulfhydryl oxidase domain, such as QSOX1.

[1] = Table 2, additive in assay buffer, with or without additional EDTA
[2] = Table 2, relative to assay buffer with additional EDTA (100%)

| Compound | Difference (absorption without minus with DEVNKB-1) (Table 1, additive 1 mM, 560 nm absorption) | Difference (absorption without minus with DEVNKB-1) (Table 1, additive 1 mM, 560 nm absorption, listed as Zn^2+) | % Activity (Table 1, additive 1 mM, relative to DEVNKB-1 without additive) | Difference (absorption without minus with DEVNKB-1) [1] | % Activity [2] | reduction of oxidizing activity associated with lot DEVNKB-1 (relative to assay buffer that contained additional EDTA) |
| --- | --- | --- | --- | --- | --- | --- |
| [Zn+2] [Zn2+] | 0.0079 | 0.008 | 1% | 0.03097 | 5% | 95% |
| O=C(O)CN(CCN(CC(=O)O)CC(=O)O)CC(=O)O [EDTA] | – | – | – | 0.572 | 100% | – |
